The subject of data set [1] is cerebellar granules. Kind of data set: Apoptosis of cerebellar granules induced by K+ deprivation. Format: cell-based, rat. To be noted: concentration of 10 μM. The protocol: Granules isolated from cerebellum of 8-day-old rats are differentiated biochemically and morphologically in approximately one week, becoming morphologically mature and with a glutamatergic interneuron phenotype (Gallo et al. 1982 PNAS 79:7919-7923). On depriving the culture medium of serum and reducing the extracellular concentration of potassium ions (25 mM) to the extent of bringing it down to a non-depolarising condition (5 mM), cell death by apoptosis is obtained in approximately 24 hours.
This experimental model made it possible to obtain a “self-fuelling” βA production system where neuronal apoptosis of the cerebellar granules brought about changes in the processing of the amyloid precursor APP, of such a nature as to favour the course of amyloidogenic metabolism. The increase in βA levels, in turn, favours programmed cell death. In this experimental setting, the potential efficacy of the study substances was measured in terms of cell survival at given times (24, 48 and 72 hours) after the reduction of KCl in the medium.
In primary cultures of cerebellar granules of 8-day-old rats, maintained in a culture medium containing KCl 25 mM, the cells were labelled with ^35S-methionine after 6 days in culture. […]
The protection against toxicity was assessed in terms of cell viability at 24, 48 and 72 hours.

The target of data set [2] is T1, βA1-42 peptide (Homo sapiens, UniProt P05067).
T1 construct: βA1-42 peptide (1 mg/ml) was dissolved in H2O/CH3CN (1:1)
Briefly: Antiaggregant effect on β-amyloid1-42 peptide, thioflavin T binding, 5 days incubation. Format: biochemical. The procedure:
The antiaggregant effects of sodium pamoate on βA1-42 peptide were evaluated by measuring thioflavin T binding according to the following procedure. βA1-42 peptide (cat. Bachem n° H-1368.0500) at a concentration of 0.22 mM was incubated at 37° C. in Tris buffer 100 mM pH 7.4, alone or in the presence of sodium pamoate, for 5 days. The molar ratios of the peptide to sodium pamoate were generally 1:8, 1:4 and 1:2. The solution was centrifuged at 13000 rpm for 5 minutes and the supernatant was eliminated. The precipitate was washed with 500 μl of H2O and centrifuged at 13000 rpm for 5 minutes. In the precipitate, the aggregate in fibril form was detected with 600 μl of thioflavin T (ThT) 2 μM dissolved in glycine-NaOH buffer 50 mM, pH 9.4. After 5 minutes' incubation 500 μl of samples were transferred to a quartz cuvette and the fluorimetric signal was determined at 420 nm excitation and 480 nm emission in a spectrophotofluorimeter. In these conditions the fluorimetric signal is proportional to the amount of amyloid aggregate (Le Vine, Methods in Enzymology, vol. 309 pp 274-284).

The target in data set [3] is T1, βA1-42 peptide. Kind of data set: βA1-42 polymerization, Thioflavina T binding assay in 96 well plates. It counts as biochemical. To be noted: concentrations between 0.8 and 100 μM, overnight at 37° C.; read-out: DE50 (the source's name). The procedure: The ST1641, ST1722, ST1859, ST1745, ST1800, ST1913 capability to counteract βA1-42 polymerization was evaluated using the Thioflavina “T” binding assay with the following procedure (M. A. Findeis, S. M. Molineaux; Methods in Enzymology 309, 487-488 (1999)): βA1-42 peptide (1 mg/ml) was dissolved in H2O/CH3CN (1:1), lyophilized, solubilized in DMSO+PBS and incubated at 37° C. for 8 days. The peptide was then sonicated and dissolved in PBS (1:5). 96 well plates were prepared with a solution of βA1-42 (40 μl/well) and ST testing compounds (50 μl/well, at concentrations between 0.8 and 100 μM). 50 μl of not aggregated βA1-42 was added after 15 minutes to each well and the plates were incubated overnight at 37° C. with agitation. 200 μl of a reaction mixture containing Thioflavina “T” (10 μM) and Na2HPO4×2H2O (50 μM) solution (pH 6.5) was then added to each well. The fluorescence was measured at 450 nm of excitation and 482 nm of emission with a 96 well fluorimetric plate reader within 60 seconds. At this experimental conditions fluorimetric measures were related to the amount of βA1-42 polymerized peptide.

Data set [4] addresses T1, βA1-42 peptide. Kind of data set: Resistance of β-amyloid1-42 peptide to trypsin digestion, HPLC. It counts as biochemical. The protocol: βA1-42 peptide was dissolved with 15 μl of NaOH 0.1 M. The solution was brought to pH 7.4 with 15 μl of TRIS buffer 100 mM to which were added 30 μl of buffer alone or 30 μl of buffer solution containing sodium pamoate. The final concentration of βA1-42 peptide was 0.22 mM, and that of sodium pamoate ranged from 0.055 to 1.76 mM, thus with a βA1-42 peptide:sodium pamoate ratio ranging from 4:1 to 1:8. The samples thus prepared were incubated at 37° C. for 5 days; in these conditions βA1-42 peptide formed aggregates in the form of fibrils modifying its structure from random-coil to β-sheet (Zagorski M. G. et al. 1999 “Methodological and Chemical Factors Affecting Amyloid β Peptide Amyloidogenicity” Methods in Enzymology 309:189-204). After 5 days' incubation, 24 μg of trypsin (Merck) were added to each sample, stirred and centrifuged for 1 minute at 13000 rpm; the samples were then left to incubate at 37° C. for 1 hour. When this period had elapsed, the mixture was centrifuged for 5 minutes at 13000 rpm, eliminating 50 μl of supernatant, and the precipitate was dissolved with 40 μl of HCOOH and 10 μl of H2O containing 0.1% of trifluoroacetic acid (TFA). At this point the sample was ready for quantitative HPLC analysis. The HPLC profile of the sample incubated with sodium pamoate was compared with that obtained with peptide alone, thereby quantifying the βA1-42 peptide.

The target of data set [5] is T2, previously aggregated βA1-42 peptide (Homo sapiens, UniProt P05067).
T2 construct: βA1-42 peptide (cat. Bachem n° H-1368.0500) at a concentration of 0.22 mM; purchased Bachem H-1368.0500
Briefly: Dissolution of aggregates of preformed β-amyloid1-42 in fibril form, thioflavin T binding. Format: biochemical. To be noted: peptide:pamoate ratio 1:8. The protocol:
This experiment was conducted in order to assess the antiaggregant capacity of sodium pamoate on previously aggregated βA1-42 peptide, according to the following procedure. βA1-42 peptide was left to aggregate for 48 hours at 37° C. in the conditions described in Example 6. Sodium pamoate was added (peptide:pamoate ratio 1:8).

Data set [6] has as its target T3, β-amyloid25-35 peptide (Homo sapiens, UniProt P05067).
T3 construct: aqueous solution of βA25-35 2 mM (cat. Bachem n° H-1192.0001); purchased Bachem H-1192.0001
Briefly: Antiaggregant effect on β-amyloid25-35 peptide (centrifugation, settled solid). It counts as biochemical. The conditions noted are these: sodium pamoate 1 mM, βA25-35 1 mM, phosphate buffer 100 mM pH 5, 24 hours ambient temperature. The protocol:
To 250 μl of a solution consisting of sodium pamoate 2 mM and phosphate buffer 200 mM pH 5 were added 250 μl of an aqueous solution of βA25-35 2 mM (cat. Bachem n° H-1192.0001). 500 μl of a solution of sodium pamoate 1 mM, βA25-35 1 mM and phosphate buffer 100 mM pH 5 were thus obtained. The same process was carried out for the control sample where sodium pamoate was not present. After 24 hours at ambient temperature, the sample and control were centrifuged at 12000 rpm for 20 minutes, separating the settled solids from the supernatants. To the settled solids were added 250 μL of water. After 3 hours at ambient temperature the samples were centrifuged again at a 12000 rpm for 20 minutes.

Data set [7] deals with primary cortical neuronal cultures. Kind of data set: Inhibition of neurotoxicity induced by β-amyloid25-35 in primary neuronal cultures. Format: cell-based, rat. The procedure:
To verify the potential neuroprotective activity of sodium pamoate, primary cortical neuronal cultures obtained by microdissection of rat foetal brain at day 16-18 of gestation were used. The cerebral tissue was cultivated in the presence of foetal calf serum and the glial proliferation was inhibited by adding to the incubation medium the antimitotic agent cytosine arabinoside on days 3 and 5 (Andreoni et al. 1997 Exp. Neurology 148:281-287). The cell cultures were exposed to βA25-35 peptide for 5-7 days in the presence or absence of sodium pamoate. The neuroprotective action was evaluated in conditions of neurotoxicity induced by kainic acid to verify the specificity of action of sodium pamoate and its effective antiaggregant activity against the neurotoxic agent. The ability of sodium pamoate to protect the cells against degeneration was also evaluated in neuronal cells cultured in the absence of foetal calf serum in the culture medium. In this case, 24 hours after seeding, the medium was replaced with one without serum containing glutamine, insulin, transferrin, putrescin, progesterone, sodium selenite and Hepes.
Primary cultures of neurons of the […] were taken from the rat foetal brain on days 16-18 of gestation and cultured in foetal calf serum. On incubation days 3 and 5, glial proliferation was inhibited using cytosine arabinoside as an antimitotic agent.
The cultures were exposed to βA25-35 peptide at concentrations of 25 and 50 μM from the day following seeding for 5 to 7 days.
βA25-35 peptide was added to the cultures together with sodium pamoate which had equimolar concentrations or concentrations lower than those of the peptide itself.
The protection against neurotoxicity was evaluated using the colorimetric method and densitometric analysis with an image analyser.

The nature of data set [8]: Capability to cross in vivo the blood brain barrier, 14C-labelled compound. Details: species or system rats. To be noted: i.v. The protocol:
ST1859 inhibited “in vitro” the beta amyloid aggregation and to test its permeability through the intact blood-brain barrier, ST1859, labelled with ^14C(S. A. 50 μCi/mM), was injected i.v. into normal rats at the dose of 18 μCi/rat. The brain and blood were up-taken 30′ after the injection, the blood was then centrifuged (3000 RPM×15 min) and serum obtained was diluted 1:20 with water while brain tissue was homogenized 1:20 w/v in water. To each sample was then added 4 ml of scintillation liquid for aqueous samples The amount of radioactivity was counted with an automatic β-counter (Packard 4600). Data reported in DPM (table 1) were normalized vs. weight or volume of each sample.

Where [9] appears, read: 18 μCi/rat, 30′ after the injection, mean.

Bounds are passed on as bounds.

T1 sequence (P05067 672-713): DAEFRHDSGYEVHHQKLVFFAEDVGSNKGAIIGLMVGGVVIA
T2 sequence (P05067 672-713): as above

In the case of `O=C(O)c1cc2ccccc2c(Cc2c([O-])c(C(=O)O)cc3ccccc23)c1[O-].[Na+].[Na+]` [ST1641, sodium pamoate], the “protection against the damage induced by amyloid forming during the apoptotic process” value in data set [1] was determined as 89%. The “efficacy in reducing thioflavin T binding as a function of incubation time” value in data set [2] (from 1 to 5 days' incubation) is reported as “progressive increase in efficacy”. Also, in data set [2] (βA1-42 0.22 mM, 37° C., 5 days, peptide:pamoate 1:8, 1:4, 1:2, dose-dependent), the “reduction in the formation of βA1-42 aggregates in the form of fibrils as compared to controls” value is at most 70%. In addition, the EC50 in data set [3] was found to be 38.2 µM. Moreover, the “increase of trypsin hydrolysis of βA1-42” value in data set [4] (highest dose, peptide:pamoate ratio 1:8) is reported as “more than 50%”; in data set [4] (lowest dose, peptide:pamoate ratio 1:4) it was “more than 40%”. Further, the “activity in reducing thioflavin T binding” value in data set [5] (preformed aggregates) was “extremely active”. Moreover, the “reduction in fluorescence as compared to controls” value in data set [5] (βA1-42 aggregated 48 hours at 37° C.) was 70%. Further, the “inhibition of aggregation of βA25-35 peptide in fibrils” value in data set [6] is recorded as “complete inhibition”. Moreover, the “protection against the toxicity induced by βA25-35” value in data set [7] was “complete protection”. The percentage survival in data set [7] (Sodium pamoate 25 μM + βA25-35 50 μM) is 100 % S; in data set [7] (Sodium pamoate 25 μM alone), 88 % S.
In the case of `CC(=O)O[C@H](CC(=O)Oc1c(C(=O)O)cc2ccccc2c1Cc1c(O)c(C(=O)O)cc2ccccc12)C[N+](C)(C)C` [ST1722, (2R)-2-(acetyloxy)-4-({3-carboxy-1-[(3-carboxy-2-hydroxy-1-naphthyl)methyl]-2-naphthyl}oxy)-N,N,N-trimethyl-4-oxo-1-butanaminium chloride], the EC50 in data set [3] worked out at 90.3 µM.
Same read-out and setting: to `CC(=O)O[C@H](CC(=O)Oc1ccc2ccccc2c1Cc1c(O)ccc2ccccc12)C[N+](C)(C)C` [ST1745, (2R)-2-(acetyloxy)-4-({1-[(2-hydroxy-1-naphthyl)methyl]-2-naphthyl}oxy)-N,N,N-trimethyl-4-oxo-1-butanaminium chloride] belongs 8 µM; to `CCN(CC)CCOC(=O)c1cc2ccccc2c(Cc2c(O)c(C(=O)OCCN(CC)CC)cc3ccccc23)c1O` [ST1800, 2-({4-[(3-{[2-(diethylammonio)ethoxy]carbonyl}-2-hydroxy-1-naphthyl)methyl]-3-hydroxy-2-naphthoyl}oxy)-N,N-diethylethanaminium dichloride], over 50 µM.
In the case of `Oc1ccc2ccccc2c1Cc1c(O)ccc2ccccc12` [ST1859, 1,1′-methylene-di(2-naphthol)], in data set [8] (setting [9]), the Brain radioactivity is on record as 35.643 DPM/g, the Serum radioactivity is 29.776 DPM/ml and the Serum/Brain came out at 0.833. For the same compound, in data set [8] (normal rats), the “ability to cross the blood brain barrier” value is on record as “able to cross the blood brain barrier”. Further, the EC50 in data set [3] came to 5.4 µM.
Turning to `NCC(=O)Oc1ccc2ccccc2c1Cc1c(O)ccc2ccccc12` [ST1913, 2-({1-[(2-hydroxy-1-naphthyl)methyl]-2-naphthyl}oxy)-2-oxoethanaminium chloride], the EC50 in data set [3] was found to be 7.8 µM.
In turn, “βA25-35: β-amyloid25-35 peptide (cat. Bachem n° H-1192.0001), used as neurotoxic agent (GSNKGAIIGLM; Amyloid-beta protein 42; UniProt P05067 696-706, looked up, fragment) [reference compound]” came in with a percentage survival in data set [7] (βA25-35 50 μM alone) of 16 % S.

The values above are taken from patent publication US20080293812A1, “Use of pamoic acid or one of its derivatives, or one of its analogues, for the preparation of a medicament for the treatment of diseases characterised by deposits of amyloid aggregates” (Sigma-Tau Industrie Farmaceutiche Riunite S. P.A.,, priority 2000, published 2008).
